Columns and labels:
[1] = target: T1, wild-type c-Abl (Homo sapiens, UniProt P00519); experiment: In vitro inhibition by K252a; format: biochemical
T1 construct: GST; made in house

[2] = tested on: panel of wild-type protein kinases (v-src, Fyn, c-Abl, CAMK IIα, CDK2); experiment: In vitro inhibition, panel of wild-type protein kinases; format: biochemical
[3] = target: protein kinase A (Homo sapiens, UniProt P17612); details: reported (89, 90); cited from earlier work
[4] = target: cGMP dependent protein kinase; details: reported (89, 90); cited from earlier work
[5] = tested on: Trk family tyrosin kinases; details: reported (89, 90); cited from earlier work

T1 sequence (P00519 whole entry): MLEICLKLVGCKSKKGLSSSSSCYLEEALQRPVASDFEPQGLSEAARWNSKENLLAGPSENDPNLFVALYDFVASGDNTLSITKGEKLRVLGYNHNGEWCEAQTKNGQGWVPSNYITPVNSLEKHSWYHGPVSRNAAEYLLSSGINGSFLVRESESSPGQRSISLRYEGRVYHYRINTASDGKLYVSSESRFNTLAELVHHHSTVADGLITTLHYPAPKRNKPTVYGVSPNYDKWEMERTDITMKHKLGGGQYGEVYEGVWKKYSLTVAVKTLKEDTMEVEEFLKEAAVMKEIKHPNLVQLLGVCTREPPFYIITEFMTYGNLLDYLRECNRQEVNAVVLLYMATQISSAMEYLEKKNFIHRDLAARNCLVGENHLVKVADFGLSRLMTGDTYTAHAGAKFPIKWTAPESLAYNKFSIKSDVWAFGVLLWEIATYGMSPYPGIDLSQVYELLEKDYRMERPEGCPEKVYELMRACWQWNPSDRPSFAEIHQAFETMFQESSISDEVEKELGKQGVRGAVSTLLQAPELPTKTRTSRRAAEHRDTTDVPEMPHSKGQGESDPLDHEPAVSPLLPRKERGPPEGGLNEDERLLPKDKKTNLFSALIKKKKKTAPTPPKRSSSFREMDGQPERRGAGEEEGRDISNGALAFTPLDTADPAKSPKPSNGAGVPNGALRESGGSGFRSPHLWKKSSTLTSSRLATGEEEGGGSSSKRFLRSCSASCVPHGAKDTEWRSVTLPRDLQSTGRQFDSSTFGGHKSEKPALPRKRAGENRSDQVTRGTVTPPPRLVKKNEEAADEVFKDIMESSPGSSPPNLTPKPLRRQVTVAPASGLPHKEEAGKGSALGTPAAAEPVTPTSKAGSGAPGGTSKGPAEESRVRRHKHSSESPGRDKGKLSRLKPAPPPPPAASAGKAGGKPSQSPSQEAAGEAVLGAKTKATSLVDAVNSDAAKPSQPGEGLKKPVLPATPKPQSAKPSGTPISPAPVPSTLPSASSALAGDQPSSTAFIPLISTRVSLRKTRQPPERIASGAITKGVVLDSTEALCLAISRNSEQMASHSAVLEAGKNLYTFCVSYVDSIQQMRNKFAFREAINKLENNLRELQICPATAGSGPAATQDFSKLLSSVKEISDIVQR

For `COC(=O)[C@@]1(O)C[C@H]2O[C@]1(C)n1c3ccccc3c3c4c(c5c6ccccc6n2c5c31)C(=O)NC4` [Compound K252a, (+)-K252a], the “inhibition of wild-type Abl” value [1] is given as “not effectively inhibited”, the “inhibition of wild-type protein kinases (in words)” value [2] is given as “can efficiently inhibit Src family kinases, cyclin dependent kinases, and calmodulin dependent kinases” and the IC50 [3] is given as at most 30 nM. The IC50 [4] was at most 30 nM and the IC50 [5] was at most 30 nM.

From patent US20030073218A1, “High affinity inhibitors for target validation and uses thereof” (Princeton University, priority 1999, published 2003)
